GI50 and TGI data for eleven molecules are collected here from PubChem BioAssay (NCI).

Values joined by “and” are separate entries in the source; they are usually repeats but may differ in a detail not shown here. Identical values can stand only once.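 The compound was tested at five concentrations on cells cultured in 96-well plates, with a 48-hour exposure period. Here, GI50 denotes the concentration required for 50% inhibition of growth. At the TGI there is no net growth.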 A value given as a limit tells only on which side of the number the result lay.

Test in all cases: NCI anticancer screen, dose series, 48 h
For test [1], the system named is NCI-H522 lung.
Test [2] has as its system OVCAR-3 ovarian.
In test [3] the test system is PC-3 prostate.
In test [4] the test system is ACHN renal.
Test [5] has as its system HCC-2998 colon.
Test [6] deals with CCRF-CEM leukemia.
Test [7] has as its system SNB-19 CNS.
The subject of test [8] is SK-MEL-5 melanoma.
For test [9], the system named is NCI-H226 lung.
The subject of test [10] is EKVX NSCLC.

On to `O=S(=O)(Nc1ccccn1)c1ccc(N=Nc2ccc(O)c3ncccc23)cc1`, for which the GI50 in [1] is 0.418 µM; in test [2] it was 1.13 µM; in test [3] it was 1.29 µM; in test [4] it was 0.976 µM; in test [5], 3.73 µM; in test [6], 1.21 µM. In addition, the values for the GI50 in test [7], in test [8] and in test [9] were 0.771 µM, 0.683 µM and 2.96 µM, respectively. The TGI is 2.14 µM in test [1]; 11.4 µM in test [2]; over 100 µM in test [3]; 9.64 µM in test [4]; 18.4 µM in test [5]; over 95.2 µM in test [6]. Also, the TGI in test [7] is over 53.3 µM; in [8], 1.63 µM; in test [9], 10.8 µM.
`Oc1c(CN2CCN(c3ccccc3F)CC2)cc(Br)c2cccnc12`: the GI50 in test [1] is 0.662 µM; in test [2], 0.576 µM; in test [3], 0.807 µM; in [4] it was 0.495 µM; in [5] it was 2.87 µM; in test [6], 0.355 µM. Moreover, the GI50 in test [7] was 1.14 µM; in test [8], 0.616 µM; in [9] it was 1.17 µM. The TGI in test [1] turned out to be 5.05 µM; in [2] it was 21.2 µM; in test [3], 31.7 µM; in test [4], 13.7 µM; in test [5], 15.1 µM; in test [6], 6.35 µM. Moreover, the TGI in [7] is over 100 µM; in [8], over 21.4 µM; in [9] it was 9.5 µM.
Take `Cn1c(=O)c2[nH]c(CCCCc3nc4c([nH]3)c(=O)n(C)c(=S)n4C)nc2n(C)c1=S`: the TGI in test [1], in test [2], in [3], in test [4], in [6] and in test [7] was over 100 µM each time. Further, the TGI in [8], in test [10] and in [9] was over 100 µM throughout.
For the molecule `CC(=O)[O][Bi]([c]1ccccc1)[c]1ccccc1`, the GI50 is 1.56 µM in test [1]; 11.8 µM in test [2]; 16.1 µM in test [3]; 11.8 µM in test [4]; 2.27 µM in [6]; 12.6 µM in [7]. The results for the GI50 in [8], in [10] and in [9] were 12.8 µM, 19.4 µM and 18.6 µM, respectively. Besides, the TGI was determined as 3.11 µM in test [1]; 34.3 µM in test [2]; 30.7 µM in test [3]; 24.4 µM in test [4]; 5 µM in test [6]; 26.8 µM in test [7]. Besides, the TGI stood at 25.9 µM in [8], 34.5 µM in test [10] and 37.5 µM in test [9].
On to `Nc1nc(-c2cccs2)cs1`, for which the TGI in [1], in test [2], in test [3], in test [4], in test [5] and in [6] was over 100 µM throughout. The TGI in [7], in [8] and in test [10] was over 100 µM in each case.
For `C/C=C/C1=CN2C(=O)c3cc(OC4OC(C)C(NC)C(C)(O)C4O)c(C)c(O)c3N=C[C@@H]2C1` (some centres undefined), the GI50 in test [1] is 0.119 µM; in [2] it was 0.203 µM; in test [4] it was 0.071 µM and < 0.01 µM; in [6], 0.0639 µM and < 0.01 µM; in test [9] it was 0.124 µM. The TGI is 0.302 µM in test [1], 16.5 µM in test [3] and 41.5 µM in test [6].
Turning to `CCOC(=O)N1C=CC(=C2C(=C3C=CN(C(=O)OCC)C=C3)C(=C3C=CN(C(=O)OCC)C=C3)C2=C2C=CN(C(=O)OCC)C=C2)C=C1`, the TGI in [1] is 65.4 µM; in [2], 81.1 µM; in test [3], 91.7 µM; in test [4], 38.1 µM; in test [7], over 100 µM; in test [8], over 100 µM. Also, the TGI in [10] was over 100 µM; in [9], 71 µM.
In the case of `Cc1c(-c2nnc(-c3cc(Cl)c(Cl)cc3Cl)o2)nnn1-c1ccnc2c(C(F)(F)F)cccc12`, the GI50 was 21.8 µM in test [1]; 27.5 µM in test [2]; 15.9 µM in [3]; 21.9 µM in test [4]; 29.1 µM in test [5]; 23.8 µM in test [7]. Further, the GI50 in [8] was 17.3 µM; in test [10] it was 23.7 µM; in [9], 28.7 µM. Also, the TGI amounted to 55.8 µM in [1]; 82.7 µM in test [2]; 37.4 µM in test [3]; 51.6 µM in test [4]; 91.9 µM in test [5]; 79.9 µM in test [7]. Also, the TGI stood at 32.5 µM in test [8], 73.9 µM in test [10] and 91.7 µM in test [9].
Regarding `O=C(O)c1ccccc1Nc1ccc2nnc(-c3ccncc3)n2n1`, the GI50 in test [1] is 10.4 µM; in [2], 9.7 µM; in test [3], 13.4 µM; in test [4], 4.24 µM; in test [5], 23.5 µM; in test [6], 4.28 µM. The results for the GI50 in test [7] and in [8] were 14.2 µM and 3.92 µM, respectively. In addition, the TGI was 22.8 µM in test [1]; 24.8 µM in test [2]; 31.9 µM in test [3]; 17.4 µM in test [4]; 52 µM in [5]; over 100 µM in test [6]. Besides, the values for the TGI in test [7] and in [8] were 40.8 µM and 14.8 µM, respectively.
On to `COc1ccc(C(c2cc3c(cc2O)OCO3)N2CCOCC2)cc1OC` (centres undefined), for which the TGI in test [1] came to 15.1 µM; in test [2] it was 20.5 µM; in test [3], 25.7 µM; in test [4], 23.5 µM; in test [7], 30.4 µM; in test [8], 26.3 µM. Moreover, the TGI stood at 36.7 µM in test [10] and 24.6 µM in [9].
As for `COC(=O)C(=O)C(C(=O)OC)C(=O)C(=O)Nc1cc(Cl)c(Cl)cc1Cl` (centres undefined), the TGI in test [1], in [2], in [4], in [5], in test [6] and in test [7] was over 100 µM throughout. Also, the TGI in test [8], in test [10] and in test [9] was over 100 µM throughout.
